Measured values from BindingDB's records for doi:10.1021/acs.jmedchem.5b01008 (Pfizer, 2015).
Where “and” joins values, the source holds several entries; their conditions need not be identical. Identical values can stand only once.

How the values were obtained:
[1] = target: 2-acylglycerol O-acyltransferase 3 (MGAT3, MOGAT3) (Homo sapiens) (UniProt Q86VF5); test: Inhibition of MGAT3 (unknown origin) assessed effect on incorporation of [1-14C]decanoyl moiety into triacylglycerol using [1-14C]decanoyl-CoA and 1,2-didecanoyl-sn-glycerol as substrates pre-incubated for 30 mins before substrate addition
[2] = target: 2-acylglycerol O-acyltransferase 1 (MGAT1, MOGAT1) (Homo sapiens) (UniProt Q96PD6); test: Inhibition of MGAT1 (unknown origin) assessed as effect on incorporation of [1-14C]decanoyl moiety into DAG using [1-14C]decanoyl-CoA and 2-oleoylglycerol as substrates
[3] = target: 2-acylglycerol O-acyltransferase 3 (MGAT3, MOGAT3) (Homo sapiens) (UniProt Q86VF5); test: Inhibition of human MGAT3 expressed in HEK293 cells assessed as effect on incorporation of [1,3-14C] glycerol into TAG by TLC method in presence of DGAT1 inhibitor PF-04620110 and DGAT2 inhibitor PF-06424439

2-acylglycerol O-acyltransferase 3 (MGAT3, MOGAT3) (Homo sapiens), sequence (Q86VF5 whole entry, looked up): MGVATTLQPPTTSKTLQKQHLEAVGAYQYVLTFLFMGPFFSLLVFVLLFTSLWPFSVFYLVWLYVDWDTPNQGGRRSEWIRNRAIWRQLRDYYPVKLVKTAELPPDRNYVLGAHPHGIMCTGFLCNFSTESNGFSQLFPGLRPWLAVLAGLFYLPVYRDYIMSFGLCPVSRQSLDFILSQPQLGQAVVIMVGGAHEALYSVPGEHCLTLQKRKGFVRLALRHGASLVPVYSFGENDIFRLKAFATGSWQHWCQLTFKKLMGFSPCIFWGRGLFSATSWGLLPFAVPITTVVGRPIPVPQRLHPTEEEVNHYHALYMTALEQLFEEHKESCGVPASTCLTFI
2-acylglycerol O-acyltransferase 1 (MGAT1, MOGAT1) (Homo sapiens), sequence (Q96PD6 whole entry, looked up): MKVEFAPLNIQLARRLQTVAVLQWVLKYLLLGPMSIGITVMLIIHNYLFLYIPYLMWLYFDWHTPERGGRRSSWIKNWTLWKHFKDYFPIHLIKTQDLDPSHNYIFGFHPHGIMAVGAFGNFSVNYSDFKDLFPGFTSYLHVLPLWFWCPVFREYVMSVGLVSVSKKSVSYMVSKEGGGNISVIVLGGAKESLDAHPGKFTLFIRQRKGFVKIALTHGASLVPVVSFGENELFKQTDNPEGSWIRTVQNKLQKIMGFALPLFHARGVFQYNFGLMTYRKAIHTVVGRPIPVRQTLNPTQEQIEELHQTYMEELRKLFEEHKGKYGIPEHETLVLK

Row | IC50 [1] | IC50 [2] | IC50 [3] | SMILES
1 | 6 nM |  |  | COc1cccc(CC(=O)N2Cc3ccc(S(=O)(=O)Nc4cnn(-c5ccc(F)cc5)n4)cc3C2)c1
2 | 92 nM and 100 nM | 14900 nM and 14800 nM | 205 nM and 204 nM | COc1cccc(CC(=O)N2Cc3ccc(S(=O)(=O)Nc4cnn(C5CCC5)n4)cc3C2)c1
3 | 2740 nM and 2510 nM |  |  | COc1cccc(CC(=O)N2Cc3ccc(S(=O)(=O)N(C)CCc4cccc(F)c4)cc3C2)c1
4 | 3840 nM and 3980 nM |  |  | COc1cccc(CC(=O)N2Cc3ccc(S(=O)(=O)Nc4cnn(C)n4)cc3C2)c1
5 | 365 nM and 398 nM |  |  | COc1cccc(CC(=O)N2Cc3ccc(S(=O)(=O)Nc4cnn(C5COC5)n4)cc3C2)c1
6 | 682 nM and 631 nM | > 40000 nM |  | COc1cccc(CC(=O)N2Cc3ccc(S(=O)(=O)NCCc4cccc(F)c4)cc3C2)c1
7 | 597 nM and 631 nM |  |  | COc1cccc(CC(=O)N2Cc3ccc(S(=O)(=O)Nc4cnn(C(C)C)n4)cc3C2)c1
8 | 6 nM |  |  | COc1cccc(CC(=O)N2Cc3ccc(S(=O)(=O)Nc4cnn(-c5ccccc5)n4)cc3C2)c1
9 |  |  | 394 nM and 389 nM | COc1cccc(CC(=O)N2Cc3ccc(S(=O)(=O)Nc4cnn(C5CC(F)(F)C5)n4)cc3C2)c1
